Experiments:
[1] = tested on: SKM-1 cells; assay: Proliferation assay and calculation of synergism (Example 5), SKM-1; settings: non-MLL-rearranged leukemia cell line SKM-1
Description: The acute myelogenous leukemia cell line MV4-11 (MLL-AF4) (CRL-9591) was obtained from American Type Culture Collection (ATCC), Manassas, Va. and both MOLM-13 (MLL-AF9) (ACC 554) and SKM-1 (ACC 547) cells were obtained from Leibniz Institute DSMZ-German Collection of Microorganisms and Cell Cultures, Braunschweig, Germany. MV4-11 cells were maintained in IMDM supplemented with 10% fetal bovine serum. MOLM-13 and SKM-1 cells were maintained in Roswell Park Memorial Institute medium (RPMI) supplemented with 10% fetal bovine serum. They were cultured in flasks or plates in a humidified 5% CO2 atmosphere.
Proliferation studies were performed using MOLM-13, MV4-11 and SKM-1 cell lines in vitro to evaluate the cancer cell killing effect of a combination of two agents together on cell growth. Initial proliferation studies were performed to determine the IC50 values of a given compound in each cell line. The cell counts were measured by ATP quantitation using the Promega Cell Titer Glo kit and luminescence values correspond to the amount of ATP in a given well.
These studies were performed to evaluate both the combinatorial effect of compounds on cell killing and the durability of the effect by washing out one of the agents.
Compounds evaluated for synergy in the co-treatment phase were tested in a range which was bracketed around the IC50's. The compounds were plated to a 96 well plate in a matrix format which includes increasing concentrations of each drug in the combination in a constant ratio, in addition to the effect of each compound alone in the study. […] Maximum and minimum inhibition (DMSO alone) controls were used in each plate to calculate fraction affected (Fa) of a test well. DMSO concentration was kept at 0.1% v/v. The drug combination analysis was performed utilizing the Chou-Talalay method. Synergy was determined using the software package Calcusyn by Biosoft. The combination index (CI) is the term used to describe the level of synergy or antagonism in a given test system. A combination index less than one indicates synergy, and a CI greater than one indicates antagonism.
The drug combination analysis was performed using the Chou-Talalay method. Graphs representing values of combination index (CI) versus Fractional effect (Fa) known as Fa-CI plots were generated and synergy was evaluated. Drug synergy was statistically defined by CI values less than 1, antagonism by CI>1 and additive effect by CI equal to 1.

[2] = tested on: MOLM-13 cells; assay: CD11b and CD14 expression by flow cytometry, MOLM-13; type: cell-based, human
Protocol: (§1) On Day 0 MOLM-13 cells are seeded at 3,000 cells/mL. On Day 7 and Day 10 MOLM-13 cells are counted and reseeded at 50,000 cells/mL. […] On Day 10 They were redosed again. On Day 14 the experiment was terminated.
The cells were prepared by washing twice in PBS, followed by fixation in 4% formaldehyde for ten minutes at 37° C. After fixation cells were washed and blocked with blocking buffer for 10 minutes at room temperature. Cells were then incubated in presence of anti-CD14, anti-CD11b or anti-IgG antibody for 1 hour at room temperature while rotating. Cells were washed, re-suspended in PBS and 5,000 events were analyzed using ExpressPro software on the GuavaCyte Plus System.

[3] = tested on: H3K79me2; settings: cited from earlier work
[4] = tested on: rat xenograft model of MLL-rearranged leukemia; settings: cited from earlier work
[5] = tested on: SKM-1 (non-MLL-rearranged AML); assay: Combination proliferation study with Compound A2 (Examples 2/3), SKM-1; type: cell-based, human; settings: non-rearranged SKM-1 cell line
Protocol: The HP-D300 digital dispenser (Tecan) was used to dispense compounds in a combinatorial matrix. […] Cell viability was measured via ATP content using CellTiter-Glo® (Promega).
Viability was determined using CellTiter-Glo® (Promega).

[6] = tested on: MOLM-13 cells; assay: Flow cytometric analysis of cell cycle and Annexin V, MOLM-13; type: cell-based, human
Protocol: as §1
To evaluate the fraction of cells in each cell cycle, flow cytometric analysis was performed. FACS analysis for detection of cell death by apoptosis, and cell cycle was performed.
Samples were analyzed using the Guava EasyCyte Plus System (Millipore). Cells for cell cycle analysis were pelleted by centrifugation at 200×g for 5 minutes at 4° C., washed twice with ice cold PBS then fixed with 70% ice cold ethanol. All samples were analyzed together at end of experiment. Following fixation cells were washed with PBS and stained with the Guava cell cycle reagent (Millipore 4500-0220) for 30 minutes. Samples were analyzed using the Guava EasyCyte Plus System (Millipore).

[7] = tested on: acute leukemia lines bearing MLL translocations; settings: sparing lines without MLL gene translocations; cited from earlier work

EC50 ([6]; Homo sapiens, 168 h, MOLM-13, single agent, 7 days, Annexin-V staining, read-out: Midpoint value (EC50) of decrease in total content of viable cells): 364 ± 18 nM
Structure (SMILES): CC(C)N(C[C@H]1O[C@@H](n2cnc3c(N)ncnc32)[C@H](O)[C@@H]1O)[C@H]1C[C@@H](CCc2nc3cc(C(C)(C)C)ccc3[nH]2)C1 [Compound A2, (2R,3R,4S,5R)-2-(6-amino-9H-purin-9-yl)-5-((((1r,3S)-3-(2-(5-(tert-butyl)-1H-benzo[d]imidazol-2-yl)ethyl)cyclobutyl) (isopropyl)amino)methyl) tetrahydrofuran-3,4-diol]
Single agent antiproliferative activity in SKM-1 [1]: no single agent activity
Differentiation markers CD11b and CD14, single agent [2]: time and concentration dependent up-regulation
Inhibition of intracellular DOT1L activity (H3K79 methylation) ([3]; across a spectrum of AML cell lines): concentration-dependent inhibition of H3K79 methylation
Time for H3K79me2 to return to pretreatment levels after the latency period ([3]; after the 3-day latency period): 4 days
Period without recovery of H3K79 methylation after wash out ([3]; after wash out of Compound A2): 3 days
Depletion of cellular levels of H3K79me2 ([3]; four days of treatment): > 80%
Tumor response in xenograft [4]: sustained tumor regressions
Single agent antiproliferative effect in SKM-1 [5]: no effect alone
Apoptotic cells (Annexin-V staining), single agent ([6]; MOLM-13, after 7 days of treatment): concentration-dependent increase in apoptotic cells
Apoptosis induction over 14 day course, single agent ([6]; MOLM-13, 156 nM Compound A2 or 63 nM Ara-C): much more robust induction of apoptosis
Sub-G1 cell population, single agent ([6]; MOLM-13, 14 day treatment, 156 nM Compound A2 or 63 nM Ara-C): moderate, time-dependent increase in sub-G1 population
Cell killing in vitro [7]: promoted cell killing

Reference: patent US20160045531A1, “COMBINATION THERAPY FOR TREATING CANCER” (EPIZYME, INC., priority 2014, published 2016)
